Activity calls are given as the source filed them. No cut-off for these calls is given here.
What was measured:
Cavia porcellus [1] = species on record: Cavia porcellus; settings: Ileum, 10 nM
NG108-15 [2] = settings: 0.5 uM
Description: Antagonist activity at opioid receptor in mouse/rat NG108-15 cells assessed as reversal of morphine-induced inhibition of adenylate cyclase activity at 0.5 uM

Cavia porcellus [3] = species on record: Cavia porcellus; assay: Agonist activity at opioid receptor in electrically stimulated guinea pig ileum at <50 uM; assay type: tissue-based
Cavia porcellus [4] = species on record: Cavia porcellus; assay: Agonist activity at opioid receptor in electrically stimulated guinea pig ileum at >=50 uM; assay type: tissue-based
NG108-15 [5] = assay: Agonist activity at opioid receptor in mouse/rat NG108-15 cells assessed by adenylate cyclase assay; assay type: cell-based

Structure (SMILES)	inhibition (Cavia porcellus [1])	inhibition (NG108-15 [2])	Activity (Cavia porcellus [3])	Activity (Cavia porcellus [4])	Activity (NG108-15 [5])
C=CCN1CC[C@]23c4c5ccc(O)c4O[C@H]2C(=O)CC[C@@]3(O)[C@H]1C5	Active	Active	–	–	–
C=CCN1CC[C@@]23c4c5ccc(O)c4O[C@@H]2C(=O)CC[C@]3(O)[C@@H]1C5	–	–	inactive	inactive	inactive
